Measurements published in patent US12516056B2, “Compounds for inhibition of janus kinase 1” (MANKIND PHARMA LTD., priority 2019, dated 2026).
Where two headings read alike, the source gives them in different places.

Key:
[1] = target: T1, Recombinant JAK1 (Homo sapiens, UniProt P23458); test: JAK biochemical assay (LANCE Ultra TR-FRET), JAK1; details: recombinant JAK1, TR-FRET; read-out: Biochemical Assay (μM) JAK1
T1 construct: purchased Carna Biosciences
How it was run: (§1)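 Kinase reactions ran in buffer of 50 mM HEPES pH 7.5 with 1 mM EGTA, 10 mM MgCl2, 2 mM DTT and 0.01% Tween-20, using recombinant enzyme. Phosphorylated ULight substrate was detected by TR-FRET, and compound effect expressed as % inhibition against vehicle.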

[2] = target: T2, Recombinant JAK2 (Homo sapiens, UniProt O60674); test: JAK biochemical assay (LANCE Ultra TR-FRET), JAK2; details: recombinant JAK2, TR-FRET; read-out: Biochemical Assay (μM) JAK2
T2 construct: purchased Carna Biosciences
T2 sequence (O60674 whole entry): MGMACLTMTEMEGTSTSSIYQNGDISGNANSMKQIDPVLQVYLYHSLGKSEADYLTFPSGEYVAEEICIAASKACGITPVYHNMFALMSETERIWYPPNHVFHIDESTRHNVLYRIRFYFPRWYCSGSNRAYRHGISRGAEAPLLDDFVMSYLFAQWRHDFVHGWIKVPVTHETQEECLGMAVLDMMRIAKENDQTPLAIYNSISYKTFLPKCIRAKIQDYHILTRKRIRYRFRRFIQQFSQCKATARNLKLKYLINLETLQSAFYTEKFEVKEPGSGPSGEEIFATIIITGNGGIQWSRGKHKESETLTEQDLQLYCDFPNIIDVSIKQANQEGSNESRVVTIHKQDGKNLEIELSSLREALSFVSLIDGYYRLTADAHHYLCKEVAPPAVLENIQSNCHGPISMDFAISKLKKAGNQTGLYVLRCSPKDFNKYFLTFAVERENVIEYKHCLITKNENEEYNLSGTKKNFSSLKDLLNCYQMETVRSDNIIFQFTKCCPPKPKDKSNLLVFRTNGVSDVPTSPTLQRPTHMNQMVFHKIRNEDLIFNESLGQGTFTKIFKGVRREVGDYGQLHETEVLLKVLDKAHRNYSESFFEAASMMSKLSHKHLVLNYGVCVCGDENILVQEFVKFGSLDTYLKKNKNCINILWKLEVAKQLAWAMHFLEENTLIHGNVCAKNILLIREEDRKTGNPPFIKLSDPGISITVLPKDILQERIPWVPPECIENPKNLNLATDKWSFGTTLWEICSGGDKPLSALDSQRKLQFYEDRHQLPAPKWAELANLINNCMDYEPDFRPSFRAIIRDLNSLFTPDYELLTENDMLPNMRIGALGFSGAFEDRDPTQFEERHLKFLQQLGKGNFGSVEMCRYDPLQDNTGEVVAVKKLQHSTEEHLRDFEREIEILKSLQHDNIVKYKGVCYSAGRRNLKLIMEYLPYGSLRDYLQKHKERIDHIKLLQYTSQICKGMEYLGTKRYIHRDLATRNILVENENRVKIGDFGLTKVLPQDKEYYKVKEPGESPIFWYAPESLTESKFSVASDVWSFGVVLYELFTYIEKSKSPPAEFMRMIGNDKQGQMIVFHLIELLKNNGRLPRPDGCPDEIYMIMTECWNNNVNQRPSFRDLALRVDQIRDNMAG
How it was run: as §1

[3] = target: T3, Recombinant JAK3 (Homo sapiens, UniProt P52333); test: JAK biochemical assay (LANCE Ultra TR-FRET), JAK3; details: recombinant JAK3, TR-FRET; read-out: Biochemical Assay (μM) JAK3
T3 construct: purchased Carna Biosciences
T3 sequence (P52333 1-1124): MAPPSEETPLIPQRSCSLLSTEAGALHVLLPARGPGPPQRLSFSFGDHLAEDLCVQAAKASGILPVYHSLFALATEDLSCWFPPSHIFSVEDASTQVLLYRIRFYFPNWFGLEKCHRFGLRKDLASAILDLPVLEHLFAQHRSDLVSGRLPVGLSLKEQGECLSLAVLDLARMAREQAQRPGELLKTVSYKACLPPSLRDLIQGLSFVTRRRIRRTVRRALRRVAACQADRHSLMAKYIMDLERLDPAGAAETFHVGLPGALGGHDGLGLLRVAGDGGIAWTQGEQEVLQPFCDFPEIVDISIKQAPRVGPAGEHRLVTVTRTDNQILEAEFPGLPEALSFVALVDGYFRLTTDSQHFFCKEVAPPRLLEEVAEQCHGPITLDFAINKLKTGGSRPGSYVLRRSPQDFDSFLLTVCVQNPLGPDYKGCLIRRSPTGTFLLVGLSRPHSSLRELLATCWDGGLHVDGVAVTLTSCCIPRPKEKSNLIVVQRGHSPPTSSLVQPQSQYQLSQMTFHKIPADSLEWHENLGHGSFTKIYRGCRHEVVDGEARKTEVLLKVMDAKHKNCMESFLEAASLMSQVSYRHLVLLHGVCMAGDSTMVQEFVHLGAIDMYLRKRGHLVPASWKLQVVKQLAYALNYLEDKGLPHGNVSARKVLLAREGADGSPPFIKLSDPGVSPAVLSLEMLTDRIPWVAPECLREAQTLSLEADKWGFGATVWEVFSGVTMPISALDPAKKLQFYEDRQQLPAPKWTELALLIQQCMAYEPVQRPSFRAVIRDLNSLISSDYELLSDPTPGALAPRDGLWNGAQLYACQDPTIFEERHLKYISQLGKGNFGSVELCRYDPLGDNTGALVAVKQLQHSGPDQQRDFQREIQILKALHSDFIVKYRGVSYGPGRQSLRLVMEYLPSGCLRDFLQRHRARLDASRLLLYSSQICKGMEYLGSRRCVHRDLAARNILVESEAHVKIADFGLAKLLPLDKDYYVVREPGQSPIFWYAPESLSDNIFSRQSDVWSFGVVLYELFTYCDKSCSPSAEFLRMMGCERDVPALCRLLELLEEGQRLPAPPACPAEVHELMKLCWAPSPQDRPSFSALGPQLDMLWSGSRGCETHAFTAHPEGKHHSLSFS
How it was run: as §1

[4] = target: T4, Recombinant TYK2 (Homo sapiens, UniProt P29597); test: JAK biochemical assay (LANCE Ultra TR-FRET), TYK2; details: recombinant TYK2, TR-FRET; read-out: Biochemical Assay (μM) TYK2
T4 construct: purchased Carna Biosciences
T4 sequence (P29597 whole entry): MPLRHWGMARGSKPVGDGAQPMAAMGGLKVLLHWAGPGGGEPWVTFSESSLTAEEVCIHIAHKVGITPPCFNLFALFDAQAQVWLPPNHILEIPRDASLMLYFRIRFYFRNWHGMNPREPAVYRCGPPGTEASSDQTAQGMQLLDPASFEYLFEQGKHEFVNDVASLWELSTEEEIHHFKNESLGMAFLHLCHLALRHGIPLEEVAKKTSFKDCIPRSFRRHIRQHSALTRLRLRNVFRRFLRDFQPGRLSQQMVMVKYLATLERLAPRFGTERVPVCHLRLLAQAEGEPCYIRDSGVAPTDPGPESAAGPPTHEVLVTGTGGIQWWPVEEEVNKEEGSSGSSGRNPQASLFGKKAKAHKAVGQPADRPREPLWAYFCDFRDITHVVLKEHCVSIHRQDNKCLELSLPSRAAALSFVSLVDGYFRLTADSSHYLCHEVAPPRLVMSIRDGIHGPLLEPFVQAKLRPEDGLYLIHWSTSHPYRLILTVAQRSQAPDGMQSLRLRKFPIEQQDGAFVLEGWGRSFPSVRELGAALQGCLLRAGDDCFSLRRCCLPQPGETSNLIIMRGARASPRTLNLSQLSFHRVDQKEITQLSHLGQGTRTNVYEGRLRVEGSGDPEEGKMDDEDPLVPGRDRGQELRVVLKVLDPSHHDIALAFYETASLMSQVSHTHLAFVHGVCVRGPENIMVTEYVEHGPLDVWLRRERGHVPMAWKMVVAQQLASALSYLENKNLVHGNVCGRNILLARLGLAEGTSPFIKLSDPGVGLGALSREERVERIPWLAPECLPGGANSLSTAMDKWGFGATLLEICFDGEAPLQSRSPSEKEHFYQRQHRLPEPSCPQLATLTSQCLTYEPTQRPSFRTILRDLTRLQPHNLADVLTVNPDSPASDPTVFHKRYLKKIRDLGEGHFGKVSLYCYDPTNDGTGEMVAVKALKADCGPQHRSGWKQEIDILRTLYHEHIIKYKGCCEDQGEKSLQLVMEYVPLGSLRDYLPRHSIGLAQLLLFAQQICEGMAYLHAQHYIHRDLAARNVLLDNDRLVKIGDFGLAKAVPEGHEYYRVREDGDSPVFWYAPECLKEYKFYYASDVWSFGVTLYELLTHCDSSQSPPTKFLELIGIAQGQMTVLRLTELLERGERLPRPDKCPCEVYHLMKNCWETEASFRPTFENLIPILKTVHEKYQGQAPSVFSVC
How it was run: as §1

[5] = test system: STAT3 phosphorylation by IL-6 in TF-1 cells; test: JAK cellular assay: STAT3 phosphorylation by IL-6 in TF-1 cells (HTRF); format: cell-based; details: IL-6 30 ng/ml, pSTAT3 HTRF, read-out: Cell Based Assay (μM) TF-1/IL-6/pSTAT3
How it was run: (§2)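 Phospho-STAT3 (IL-6, 30 ng/ml) and phospho-STAT5 (GMCSF, 5 ng/ml) read by HTRF in lysates after 20 min cytokine exposure, minus unstimulated-cell background. Cells were serum-starved overnight, plated at 120,000/well, given compound 30 min at 37 °C beforehand; DMSO 0.2% final.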

[6] = test system: STAT5 phosphorylation by GMCSF in TF-1 cells; test: JAK cellular assay: STAT5 phosphorylation by GMCSF in TF-1 cells (HTRF); format: cell-based; details: TF-1 cells, GMCSF 5 ng/ml, pSTAT5 HTRF, read-out: Cell Based Assay (μM) TF-1/GMCSF/pSTAT5
How it was run: as §2

T1 sequence (P23458 whole entry): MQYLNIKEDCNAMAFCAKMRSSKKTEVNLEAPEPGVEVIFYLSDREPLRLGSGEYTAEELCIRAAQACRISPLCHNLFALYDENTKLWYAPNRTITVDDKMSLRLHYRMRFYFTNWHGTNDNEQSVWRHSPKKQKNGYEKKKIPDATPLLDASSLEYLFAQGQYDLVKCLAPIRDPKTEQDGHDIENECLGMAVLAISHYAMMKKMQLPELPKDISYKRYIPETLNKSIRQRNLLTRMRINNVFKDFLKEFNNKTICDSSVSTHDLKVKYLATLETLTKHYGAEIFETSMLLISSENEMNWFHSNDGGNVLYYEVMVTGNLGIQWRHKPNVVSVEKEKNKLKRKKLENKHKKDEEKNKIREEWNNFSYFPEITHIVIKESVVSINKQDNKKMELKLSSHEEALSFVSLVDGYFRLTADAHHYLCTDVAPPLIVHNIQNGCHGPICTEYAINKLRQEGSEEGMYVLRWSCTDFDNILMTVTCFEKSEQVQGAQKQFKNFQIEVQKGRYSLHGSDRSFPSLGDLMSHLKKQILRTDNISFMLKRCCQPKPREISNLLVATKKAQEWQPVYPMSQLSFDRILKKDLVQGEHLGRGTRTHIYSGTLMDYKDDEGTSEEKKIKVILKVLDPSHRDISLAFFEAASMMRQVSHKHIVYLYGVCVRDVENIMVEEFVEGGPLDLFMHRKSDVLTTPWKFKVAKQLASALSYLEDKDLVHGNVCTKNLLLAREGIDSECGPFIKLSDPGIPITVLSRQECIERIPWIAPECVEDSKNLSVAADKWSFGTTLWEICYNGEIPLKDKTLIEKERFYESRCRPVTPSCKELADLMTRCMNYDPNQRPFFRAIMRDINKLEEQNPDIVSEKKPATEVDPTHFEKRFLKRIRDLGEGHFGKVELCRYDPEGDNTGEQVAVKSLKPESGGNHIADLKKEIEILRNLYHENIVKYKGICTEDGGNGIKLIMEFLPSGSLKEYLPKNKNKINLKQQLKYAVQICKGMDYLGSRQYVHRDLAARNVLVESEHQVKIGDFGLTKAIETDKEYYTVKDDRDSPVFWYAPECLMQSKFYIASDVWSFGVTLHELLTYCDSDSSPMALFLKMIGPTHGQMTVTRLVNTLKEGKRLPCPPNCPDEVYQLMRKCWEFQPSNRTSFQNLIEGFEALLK

**Q.** Which results are given for `N#CC(NC(=O)n1cc(-c2ccnc3[nH]c(=O)[nH]c23)cn1)C1CC1` (stereo not drawn) [Example 1043, N-(cyano(cyclopropyl)methyl)-4-(2,3-dihydro-2-oxo-1H-imidazo[4,5-b]pyridin-7-yl)-1H-pyrazole-1-carboxamide]?
**A.** IC50 [1]: 0.03 µM; IC50 [2]: 0.031 µM; IC50 [3]: 0.123 µM; IC50 [4]: 0.053 µM; IC50 ([5]; Homo sapiens, TF-1, TF-1 cells): 4.7 µM; IC50 ([6]; Homo sapiens): > 10 µM

**Q.** `OC(c1ccc(-n2cc(-c3ccnc4[nH]cnc34)cn2)nc1)(C1CCCCC1)C(F)(F)F` (stereo not drawn) [Example 1130, 1-(6-(4-(3H-imidazo[4,5-b]pyridin-7-yl)-1H-pyrazol-1-yl)pyridin-3-yl)-1-cyclohexyl-2,2,2-trifluoroethanol] was tested. Which IC50 [1] did it give?
**A.** > 0.1 µM

**Q.** What about the IC50 [2] of the same compound?
**A.** > 0.1 µM

**Q.** What about the IC50 [3] of the same compound?
**A.** > 0.1 µM

**Q.** What about the IC50 [4] of the same compound?
**A.** > 1 µM

**Q.** What about the IC50 ([5]; Homo sapiens, TF-1, TF-1 cells) of the same compound?
**A.** > 1 µM

**Q.** What about the IC50 ([6]; Homo sapiens) of the same compound?
**A.** > 10 µM

**Q.** Which IC50 [1] does the source give for `N#CCC(C1CCCC1)n1cc(-c2ccnc3[nH]c(-c4ccccc4)nc23)cn1` (stereo not drawn) [Example 1180, 3-cyclopentyl-3-(4-(2-phenyl-3H-imidazo[4,5-b]pyridin-7-yl)-1H-pyrazol-1-yl)propanenitrile] here?
**A.** < 1 µM

**Q.** What about the IC50 [2] of the same compound?
**A.** < 1 µM

**Q.** And the IC50 [3]?
**A.** < 1 µM

**Q.** And the IC50 [4]?
**A.** < 1 µM

**Q.** And the IC50 ([5]; Homo sapiens, TF-1, TF-1 cells)?
**A.** > 1 µM

**Q.** What about the IC50 ([6]; Homo sapiens) of the same compound?
**A.** > 1 µM

**Q.** `CC(C(N)=O)c1ccc(-n2cc(-c3ccnc4[nH]cnc34)cn2)nc1` (stereo not drawn) [Example 1108, 2-(6-(4-(3H-imidazo[4,5-b]pyridin-7-yl)-1H-pyrazol-1-yl)pyridin-3-yl)propanamide] was tested. Which IC50 [1] did it give?
**A.** > 0.1 µM

**Q.** And the IC50 [2]?
**A.** > 0.5 µM

**Q.** What about the IC50 [3] of the same compound?
**A.** > 0.1 µM

**Q.** And the IC50 [4]?
**A.** > 1 µM

**Q.** What about the IC50 ([5]; Homo sapiens, TF-1, TF-1 cells) of the same compound?
**A.** > 10 µM

**Q.** What about the IC50 ([6]; Homo sapiens) of the same compound?
**A.** > 10 µM

**Q.** With `N#CC(c1ccc(-n2cc(-c3ccnc4[nH]cnc34)cn2)cc1)N1CCOCC1` (stereo not drawn) [Example 1101, 2-(4-(4-(3H-imidazo[4,5-b]pyridin-7-yl)-1H-pyrazol-1-yl)phenyl)-2-morpholinoacetonitrile] as the compound, how does the IC50 [1] read?
**A.** > 0.5 µM

**Q.** What about the IC50 [2] of the same compound?
**A.** > 0.5 µM

**Q.** And the IC50 [3]?
**A.** > 1 µM

**Q.** And the IC50 [4]?
**A.** > 10 µM

**Q.** And the IC50 ([5]; Homo sapiens, TF-1, TF-1 cells)?
**A.** > 10 µM

**Q.** What about the IC50 ([6]; Homo sapiens) of the same compound?
**A.** > 10 µM

**Q.** `CC(F)(c1ccc(-n2cc(-c3ccnc4[nH]cnc34)cn2)nc1)C(F)(F)F` (stereo not drawn) [Example 1128, 7-(1-(5-(1,1,1,2-tetrafluoropropan-2-yl)pyridin-2-yl)-1H-pyrazol-4-yl)-3H-imidazo[4,5-b]pyridine] was tested. Which IC50 [1] did it give?
**A.** < 0.1 µM

**Q.** What about the IC50 [2] of the same compound?
**A.** > 0.5 µM

**Q.** And the IC50 [3]?
**A.** > 0.5 µM

**Q.** What about the IC50 [4] of the same compound?
**A.** > 1 µM

**Q.** And the IC50 ([5]; Homo sapiens, TF-1, TF-1 cells)?
**A.** > 1 µM

**Q.** And the IC50 ([6]; Homo sapiens)?
**A.** > 10 µM

**Q.** What does the source list for `CC(CC#N)NC(=O)n1cc(-c2ccnc3[nH]c(=O)[nH]c23)cn1` (stereo not drawn) [Example 1052, N-(1-cyanopropan-2-yl)-4-(2,3-dihydro-2-oxo-1H-imidazo[4,5-b]pyridin-7-yl)-1H-pyrazole-1-carboxamide]?
**A.** IC50 [1]: < 0.5 µM; IC50 [2]: < 0.5 µM; IC50 [3]: > 0.5 µM; IC50 [4]: < 0.5 µM; IC50 ([5]; TF-1 cells): > 10 µM; IC50 [6]: > 10 µM

**Q.** `N#CC(NC(=O)n1cc(-c2ccnc3[nH]cnc23)cn1)c1ccccc1` (stereo not drawn) [Example 1070, N-(cyano(phenyl)methyl)-4-(3H-imidazo[4,5-b]pyridin-7-yl)-1H-pyrazole-1-carboxamide] was tested. Which IC50 [1] did it give?
**A.** > 0.5 µM

**Q.** And the IC50 [2]?
**A.** < 0.5 µM

**Q.** What about the IC50 [3] of the same compound?
**A.** > 0.5 µM

**Q.** What about the IC50 [4] of the same compound?
**A.** > 0.5 µM

**Q.** And the IC50 ([5]; Homo sapiens, TF-1, TF-1 cells)?
**A.** > 10 µM

**Q.** What about the IC50 ([6]; Homo sapiens) of the same compound?
**A.** > 10 µM

**Q.** What does the source list for `COC(c1ccc(-n2cc(-c3ccnc4[nH]cnc34)cn2)nc1)(C1CC1)C(F)(F)F` (stereo not drawn) [Example 1127, 7-(1-(5-(1-cyclopropyl-2,2,2-trifluoro-1-methoxyethyl)pyridin-2-yl)-1H-pyrazol-4-yl)-3H-imidazo[4,5-b]pyridine]?
**A.** IC50 [1]: > 0.5 µM; IC50 [2]: > 1 µM; IC50 [3]: > 1 µM; IC50 [4]: > 1 µM; IC50 ([5]; Homo sapiens, TF-1, TF-1 cells): > 1 µM; IC50 ([6]; Homo sapiens): > 10 µM
